Experimental data taken from patent US9976141B2, “Compositions and methods for inhibiting gene expression of Hif2alpha” (Arrowhead Madison Inc., priority 2015, dated 2018).
Strand notation (5' to 3'): a small letter for the sugar, then the base; units joined by * are phosphorothioate-linked, units joined directly phosphodiester-linked; [ ] holds rarer units or linkages, { } end groups; capitals alone tell only the bases. d = 2'-deoxy (DNA); m = 2'-O-methyl; f = 2'-fluoro

Tested on: human EPAS1 (Hif2α) cDNA in psiCHECK2 (Renilla luciferase/EPAS1 fusion mRNA) in Hep3B cells
Test: Efficacy screen of Hif2α RNAi triggers in vitro, dual-luciferase reporter assay (1 nM and 0.1 nM)
Assay type: cell-based
Conditions: Hep3B cells co-transfected with EPAS1-psiCHECK2, Renilla luciferase normalized to firefly luciferase
Method in brief: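 Knockdown read by dual-luciferase assay: Renilla signal from the Renilla/EPAS1 fusion transcript divided by firefly luciferase expressed from the same plasmid. Triggers (modified canonical siRNAs, 1 nM or 0.1 nM) were co-transfected with 25 ng reporter plasmid per well into human hepatocellular carcinoma Hep3B cells.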

Substance | Relative Rluc-Hif2α (0.1 nM RNAi trigger) | Relative Rluc-Hif2α (1 nM RNAi trigger)
2234 (sense fCmGfAmCfUmCfCmCfAmGfCmAfUmUfCmGfAmGfAdT; antisense dTfCmUfCmGfAmAfUmGfCmUfGmGfGmAfGmUfCmGdT*dT; siRNA) [compound 2234] | 0.508 ± 0.148 | 0.388 ± 0.046
2264 (sense fCmAfGmAfAmCfUmGfAmUfUmGfGmUfUmAfCmCfAdT; antisense dTfGmGfUmAfAmCfCmAfAmUfCmAfGmUfUmCfUmGdT*dT; siRNA) [compound 2264] | 0.381 ± 0.023 | 0.183 ± 0.019
2362 (sense fAmGfCmAfCmUfGmCfGmCfGmCfUmAfUmCfCmCfAdT; antisense dTfGmGfGmAfUmAfGmCfGmCfGmCfAmGfUmGfCmUdT*dT; siRNA) [compound 2362] | 0.673 ± 0.089 | 0.454 ± 0.069
2352 (sense fAmUfCmUfGmUfGmAfUmAfUmGfCmCfAmUfAmGfAdT; antisense dTfCmUfAmUfGmGfCmAfUmAfUmCfAmCfAmGfAmUdT*dT; siRNA) [compound 2352] | 1.012 ± 0.048 | 0.749 ± 0.049
2277 (sense fUmAfAmGfUmGfGmCfCmAfGmUfAmCfCmGfGmAfAdT; antisense dTfUmCfCmGfGmUfAmCfUmGfGmCfCmAfCmUfUmAdT*dT; siRNA) [compound 2277] | 0.625 ± 0.384 | 0.702 ± 0.091
2292 (sense fCmUfGmCfUmCfCmAfCmGfCmCfCmAfAmUfAmGfAdT; antisense dTfCmUfAmUfUmGfGmGfCmGfUmGfGmAfGmCfAmGdT*dT; siRNA) [compound 2292] | 1.135 ± 0.048 | 0.832 ± 0.000
2250 (sense fUmCfUmUfUmGfAmCfUmUfCmAfCmUfCmAfUmCfAdT; antisense dTfGmAfUmGfAmGfUmGfAmAfGmUfCmAfAmAfGmAdT*dT; siRNA) [compound 2250] | 0.255 ± 0.020 | 0.139 ± 0.046
2311 (sense fCmCfAmCfAmAfAmGfUmGfGmGfCmCfGmUfCmGfAdT; antisense dTfCmGfAmCfGmGfCmCfCmAfCmUfUmUfGmUfGmGdT*dT; siRNA) [compound 2311] | 0.888 ± 0.051 | 0.841 ± 0.130
2287 (sense fCmUfAmCfAmAfCmCfCmUfCmGfCmAfAmCfCmUfAdT; antisense dTfAmGfGmUfUmGfCmGfAmGfGmGfUmUfGmUfAmGdT*dT; siRNA) [compound 2287] | 0.871 ± 0.102 | 0.751 ± 0.011
2406 (sense fUmCfAmAfCmGfUmAfAmCfGmAfUmUfUmCfAmUfAdT; antisense dTfAmUfGmAfAmAfUmCfGmUfUmAfCmGfUmUfGmAdT*dT; siRNA) [compound 2406] | 0.241 ± 0.022 | 0.168 ± 0.044
2401 (sense fUmAfCmCfUmGfUmCfAmAfCmGfUmAfAmCfGmAfAdT; antisense dTfUmCfGmUfUmAfCmGfUmUfGmAfCmAfGmGfUmAdT*dT; siRNA) [compound 2401] | 0.375 ± 0.062 | 0.174 ± 0.003
2239 (sense fGmGfCmGfUmCfUmGfAmAfCmGfUmCfUmCfAmAfAdT; antisense dTfUmUfGmAfGmAfCmGfUmUfCmAfGmAfCmGfCmCdT*dT; siRNA) [compound 2239] | 0.225 ± 0.022 | 0.157 ± 0.017
2359 (sense fCmCfGmAfGmCfAmGfUmGfGmAfGmUfCmAfUmUfAdT; antisense dTfAmAfUmGfAmCfUmCfCmAfCmUfGmCfUmCfGmGdT*dT; siRNA) [compound 2359] | 0.576 ± 0.208 | 0.354 ± 0.022
2381 (sense fAmCfGmAfCmCfUmUfGmGfAmGfCmCfCmCfGmUfAdT; antisense dTfAmCfGmGfGmGfCmUfCmCfAmAfGmGfUmCfGmUdT*dT; siRNA) [compound 2381] | 0.756 ± 0.109 | 1.063 ± 0.191
2318 (sense fGmGfUmAfGmCfCmCfUmCfUmCfCmAfAmCfAmAfAdT; antisense dTfUmUfGmUfUmGfGmAfGmAfGmGfGmCfUmAfCmCdT*dT; siRNA) [compound 2318] | 0.885 ± 0.370 | 0.780 ± 0.103
2416 (sense fUmUfGmAfCmAfCmUfGmGfUmAfUmCfUmUfAmUfAdT; antisense dTfAmUfAmAfGmAfUmAfCmCfAmGfUmGfUmCfAmAdT*dT; siRNA) [compound 2416] | 0.247 ± 0.031 | 0.166 ± 0.031
2241 (sense fAmAfAmAfGmGfAmGfUmAfGmCfUmCfGmGfAmGfAdT; antisense dTfCmUfCmCfGmAfGmCfUmAfCmUfCmCfUmUfUmUdT*dT; siRNA) [compound 2241] | 0.385 ± 0.028 | 0.270 ± 0.068
2272 (sense fAmAfUmUfCmUfAmCfCmAfUmGfCmGfCmUfAmGfAdT; antisense dTfCmUfAmGfCmGfCmAfUmGfGmUfAmGfAmAfUmUdT*dT; siRNA) [compound 2272] | 1.028 ± 0.281 | 0.864 ± 0.197

Substance | Relative Rluc-Hif2α (0.1 nM RNAi trigger) | Relative Rluc-Hif2α (1 nM RNAi trigger)
2307 (sense fAmGfAmUfCmCfAmCfCmAfUmUfAmCfAmUfUmUfAdT; antisense dTfAmAfAmUfGmUfAmAfUmGfGmUfGmGfAmUfCmUdT*dT; siRNA) [compound 2307] | 0.800 ± 0.248 | 0.702 ± 0.142
2269 (sense fAmUfGmAfAmUfUmCfUmAfCmCfAmUfGmCfGmCfAdT; antisense dTfGmCfGmCfAmUfGmGfUmAfGmAfAmUfUmCfAmUdT*dT; siRNA) [compound 2269] | 0.530 ± 0.097 | 0.302 ± 0.080
2283 (sense fAmGfCmAfUmGfGmGfGmGfCmUfAmCfGmUfGmUfAdT; antisense dTfAmCfAmCfGmUfAmGfCmCfCmCfCmAfUmGfCmUdT*dT; siRNA) [compound 2283] | 1.175 ± 0.194 | 0.882 ± 0.026
2334 (sense fUmUfUmUfUmCfUmGfAmGfAmUfGmCfUmCfAmCfAdT; antisense dTfGmUfGmAfGmCfAmUfCmUfCmAfGmAfAmAfAmAdT*dT; siRNA) [compound 2334] | 0.672 ± 0.082 | 0.389 ± 0.044
2248 (sense fCmUfAmAfCmAfGmGfAmCfAmUfAmGfUmAfUmCfAdT; antisense dTfGmAfUmAfCmUfAmUfGmUfCmCfUmGfUmUfAmGdT*dT; siRNA) [compound 2248] | 0.215 ± 0.007 | 0.148 ± 0.036
2276 (sense fGmUfAmAfGmUfGmGfCmCfAmGfUmAfCmCfGmGfAdT; antisense dTfCmCfGmGfUmAfCmUfGmGfCmCfAmCfUmUfAmCdT*dT; siRNA) [compound 2276] | 0.543 ± 0.029 | 0.330 ± 0.080
2255 (sense fGmAfCmAfUmGfUmCfCmAfCmAfGmAfGmCfGmGfAdT; antisense dTfCmCfGmCfUmCfUmGfUmGfGmAfCmAfUmGfUmCdT*dT; siRNA) [compound 2255] | 0.653 ± 0.130 | 0.721 ± 0.055
2394 (sense fAmGfCmUfUmCfAmUfAmUfUmAfAmCfCmCfUmAfAdT; antisense dTfUmAfGmGfGmUfUmAfAmUfAmUfGmAfAmGfCmUdT*dT; siRNA) [compound 2394] | 0.533 ± 0.076 | 0.254 ± 0.026
2363 (sense fUmAfUmUfGmCfUmGfCmCfAmAfGmAfGmGfGmUfAdT; antisense dTfAmCfCmCfUmCfUmUfGmGfCmAfGmCfAmAfUmAdT*dT; siRNA) [compound 2363] | 0.653 ± 0.199 | 0.452 ± 0.091
2384 (sense fGmUfAmAfGmAfGmGfGmAfCmGfAmCfAmCfCmUfAdT; antisense dTfAmGfGmUfGmUfCmGfUmCfCmCfUmCfUmUfAmCdT*dT; siRNA) [compound 2384] | 0.533 ± 0.067 | 0.439 ± 0.101
2310 (sense fUmUfUmGfGmGfCmCfCmAfCmAfAmAfGmUfGmGfAdT; antisense dTfCmCfAmCfUmUfUmGfUmGfGmGfCmCfCmAfAmAdT*dT; siRNA) [compound 2310] | 0.785 ± 0.122 | 0.923 ± 0.101
2392 (sense fCmAfUmUfAmAfGmGfGmCfAmUfUmUfUmAfCmCfAdT; antisense dTfGmGfUmAfAmAfAmUfGmCfCmCfUmUfAmAfUmGdT*dT; siRNA) [compound 2392] | 0.636 ± 0.039 | 0.283 ± 0.052
2382 (sense fGmGfGmUfAmAfGmAfGmGfGmAfCmGfAmCfAmCfAdT; antisense dTfGmUfGmUfCmGfUmCfCmCfUmCfUmUfAmCfCmCdT*dT; siRNA) [compound 2382] | 1.070 ± 0.064 | 1.151 ± 0.365
2232 (sense fCmUfCmCfGmAfCmUfCmCfUmUfCmCfGmAfCmUfAdT; antisense dTfAmGfUmCfGmGfAmAfGmGfAmGfUmCfGmGfAmGdT*dT; siRNA) [compound 2232] | 0.684 ± 0.061 | 0.468 ± 0.032
2279 (sense fAmGfUmAfCmCfGmGfAmUfGmCfUmCfGmCfAmAfAdT; antisense dTfUmUfGmCfGmAfGmCfAmUfCmCfGmGfUmAfCmUdT*dT; siRNA) [compound 2279] | 0.506 ± 0.086 | 0.280 ± 0.042
2236 (sense fCmAfGmGfUmGfCmUfCmGfGmCfGmUfCmUfGmAfAdT; antisense dTfUmCfAmGfAmCfGmCfCmGfAmGfCmAfCmCfUmGdT*dT; siRNA) [compound 2236] | 0.693 ± 0.071 | 0.761 ± 0.042
2253 (sense fUmUfCmGfUmGfAmGfAmAfCmCfUmGfAmGfUmCfAdT; antisense dTfGmAfCmUfCmAfGmGfUmUfCmUfCmAfCmGfAmAdT*dT; siRNA) [compound 2253] | 0.646 ± 0.144 | 0.564 ± 0.043
